Data: ChEMBL document CHEMBL1201862, “PubChem BioAssay data set” (2004)
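Exposure lasted 48 hours, with cells grown in 96-well plates and compounds tested at five concentrations. GI50 is the concentration that inhibits growth by half.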 Active and inactive are the calls of the source. Rule as the data show it: active = GI50 up to about 1.1 µM and inactive = higher.

Key:
Test in all cases: growth of human tumour cells (NCI), 48 h
[1] = test system: 786-0
[2] = test system: A498
[3] = test system: A549
[4] = test system: ACHN
[5] = test system: CAKI-1
[6] = test system: CCRF-CEM
[7] = test system: COLO 205
[8] = test system: DLD-1
[9] = test system: DMS-114
[10] = test system: DMS-273
[11] = test system: EKVX
[12] = test system: HCC 2998
[13] = test system: HCT-116
[14] = test system: HCT-15
[15] = test system: HL-60
[16] = test system: HOP-18
[17] = test system: HOP-62
[18] = test system: IGROV-1
[19] = test system: K562
[20] = test system: KM-20L2
[21] = test system: KM12
[22] = test system: LXFL 529
[23] = test system: M14
[24] = test system: M19-MEL
[25] = test system: MOLT-4
[26] = test system: Malme-3M
[27] = test system: NCI-H226
[28] = test system: NCI-H460
[29] = test system: NCI-H522
[30] = test system: OVCAR-3
[31] = test system: OVCAR-4
[32] = test system: OVCAR-8
[33] = test system: RPMI-8226
[34] = test system: RXF 393
[35] = test system: RXF 631
[36] = test system: SF-268
[37] = test system: SF-539
[38] = test system: SK-MEL-28
[39] = test system: SK-MEL-2
[40] = test system: SK-MEL-5
[41] = test system: SK-OV-3
[42] = test system: SN12C
[43] = test system: SNB-19
[44] = test system: SNB-75
[45] = test system: SNB-78
[46] = test system: SR
[47] = test system: SW-620
[48] = test system: TK-10
[49] = test system: U-251
[50] = test system: UACC-257
[51] = test system: UACC-62
[52] = test system: UO-31
[53] = test system: HT-29
[54] = test system: LOX IMVI
[55] = test system: NCI-H23
[56] = test system: OVCAR-5
[57] = test system: SF-295
[58] = test system: XF498

## C=CCC12CCC(=O)C=C1CCC1(C2)OCCO1 (centres undefined)
[1]
  GI50: > 100 µM (inactive)
[2]
  GI50: > 100 µM (inactive)
[3]
  GI50: > 100 µM (inactive)
[4]
  GI50: > 100 µM (inactive)
[5]
  GI50: > 100 µM (inactive)
[6]
  GI50: 53.1 µM (inactive)
[7]
  GI50: > 100 µM (inactive)
[8]
  GI50: > 100 µM (inactive)
[9]
  GI50: > 100 µM (inactive)
[10]
  GI50: > 100 µM (inactive)
[11]
  GI50: > 100 µM (inactive)
[12]
  GI50: > 100 µM (inactive)
[13]
  GI50: > 100 µM (inactive)
[14]
  GI50: > 100 µM
[15]
  GI50: 40.4 µM (inactive)
[16]
  GI50: > 100 µM (inactive)
[17]
  GI50: > 100 µM (inactive)
[18]
  GI50: > 100 µM (inactive)
[19]
  GI50: 55.2 µM (inactive)
[20]
  GI50: > 100 µM (inactive)
[21]
  GI50: > 100 µM (inactive)
[22]
  GI50: > 100 µM (inactive)
[23]
  GI50: > 100 µM (inactive)
[24]
  GI50: > 100 µM (inactive)
[25]
  GI50: > 100 µM (inactive)
[26]
  GI50: > 100 µM (inactive)
[27]
  GI50: > 100 µM (inactive)
[28]
  GI50: > 100 µM (inactive)
[29]
  GI50: > 100 µM (inactive)
[30]
  GI50: > 100 µM (inactive)
[31]
  GI50: > 100 µM (inactive)
[32]
  GI50: > 100 µM (inactive)
[33]
  GI50: > 100 µM (inactive)
[34]
  GI50: > 100 µM (inactive)
[35]
  GI50: > 100 µM (inactive)
[36]
  GI50: > 100 µM (inactive)
[37]
  GI50: > 100 µM (inactive)
[38]
  GI50: > 100 µM (inactive)
[39]
  GI50: > 100 µM (inactive)
[40]
  GI50: > 100 µM (inactive)
[41]
  GI50: > 100 µM (inactive)
[42]
  GI50: > 100 µM (inactive)
[43]
  GI50: > 100 µM (inactive)
[44]
  GI50: > 100 µM (inactive)
[45]
  GI50: > 100 µM (inactive)
[46]
  GI50: > 100 µM (inactive)
[47]
  GI50: > 100 µM (inactive)
[48]
  GI50: > 100 µM (inactive)
[49]
  GI50: > 100 µM (inactive)
[50]
  GI50: > 100 µM (inactive)
[51]
  GI50: > 100 µM (inactive)
[52]
  GI50: > 100 µM (inactive)

## CCOC(=O)/C(C(=O)c1ccccc1)=C1\N[C@H](C(=O)OCC)CS1
[1]
  GI50: 10 µM (inactive)
[3]
  GI50: > 100 µM (inactive)
[4]
  GI50: > 100 µM (inactive)
[5]
  GI50: > 100 µM (inactive)
[6]
  GI50: > 100 µM (inactive)
[7]
  GI50: > 100 µM (inactive)
[8]
  GI50: > 100 µM (inactive)
[11]
  GI50: > 100 µM (inactive)
[12]
  GI50: > 100 µM (inactive)
[13]
  GI50: > 100 µM (inactive)
[14]
  GI50: > 100 µM
[15]
  GI50: > 100 µM (inactive)
[16]
  GI50: 16.3 µM (inactive)
[17]
  GI50: > 100 µM (inactive)
[53]
  GI50: > 100 µM (inactive)
[18]
  GI50: > 100 µM (inactive)
[19]
  GI50: > 100 µM (inactive)
[20]
  GI50: > 100 µM (inactive)
[21]
  GI50: > 100 µM (inactive)
[54]
  GI50: > 100 µM (inactive)
[22]
  GI50: > 100 µM (inactive)
[23]
  GI50: > 100 µM (inactive)
[25]
  GI50: > 100 µM (inactive)
[26]
  GI50: > 100 µM (inactive)
[27]
  GI50: > 100 µM (inactive)
[55]
  GI50: > 100 µM (inactive)
[28]
  GI50: > 100 µM (inactive)
[29]
  GI50: > 100 µM (inactive)
[30]
  GI50: > 100 µM (inactive)
[31]
  GI50: > 100 µM (inactive)
[56]
  GI50: > 100 µM (inactive)
[32]
  GI50: > 100 µM (inactive)
[33]
  GI50: > 100 µM (inactive)
[34]
  GI50: > 100 µM (inactive)
[35]
  GI50: > 100 µM (inactive)
[36]
  GI50: > 100 µM (inactive)
[57]
  GI50: > 100 µM (inactive)
[37]
  GI50: 10 µM (inactive)
[38]
  GI50: > 100 µM (inactive)
[39]
  GI50: > 100 µM (inactive)
[40]
  GI50: 92.3 µM (inactive)
[42]
  GI50: > 100 µM (inactive)
[43]
  GI50: > 100 µM (inactive)
[44]
  GI50: > 100 µM (inactive)
[45]
  GI50: > 100 µM (inactive)
[46]
  GI50: > 100 µM (inactive)
[47]
  GI50: > 100 µM (inactive)
[49]
  GI50: > 100 µM (inactive)
[50]
  GI50: > 100 µM (inactive)
[51]
  GI50: > 100 µM (inactive)
[52]
  GI50: > 100 µM (inactive)
[58]
  GI50: > 100 µM (inactive)
